These results are taken from US5652222A, “Selective inhibition of leukemic cell proliferation by bcr-abl antisense oligonucleotides” (Temple University-of The Commonwealth System of Higher …, priority 1993, dated 1997).

Broadly, the % Inhibition is the relative decrease from the control value, in per cent. Lower therefore signals a response near the control.

For data set [1], the system named is Philadelphia chromosome-positive blast cells of CML patients in blast crisis, L-6 (b2a2) type junction. The data set is described as follows: Colony formation of CML blast crisis patient cells expressing the b2a2 (L-6) junction. The data set is classed as cell-based, human.
For a further data set, the system named is bcr-abl transcripts. Nature of the data set: bcr-abl transcript in residual colonies (RT-PCR). The conditions noted are these: colonies arising from mixed cell populations of Example 3. Format: cell-based, human. On the procedure: To provide unambiguous evidence of the elimination of Philadelphia chromosome blast cells, residual cells from Example 3 were evaluated for the expression of bcr-abl transcripts, since the levels of this transcript should reflect the number of surviving leukemia cells. For this purpose, total RNA was isolated from a pool of colonies from Example 3, and the levels of bcr-abl transcripts were evaluated. Levels of β2 -microglobulin transcript were also determined as a control. The β2 -microglobulin gene is expressed independent of cell cycle.
Accordingly, bcr-abl and β2 -microglobulin transcripts were reverse-transcribed and amplified in the presence of specific primers and Taq polymerase as described by Rappollee, Science 241, 708-712 (1988). The amplification products were separated on a 2% agarose gel and transferred to a nitrocellulose filter, which was hybridized with a synthetic 40-nucleotide c-abl fragment and a 40-nucleotide β2 -microglobulin fragment and labeled with [γ-^32 P]-ATP and polynucleotide kinase. The c-abl probe recognizes the amplified 257-nucleotide sequence of FIG. 1, which contains the L-6 type bcr-abl junction. The β2 -microglobulin probe recognizes the 195-nucleotide sequence contained within 5' and 3' β2 -microglobulin primers (Id.; Suggs et al., Proc. Natl. Acad. Sci. U.S.A. 78, 6613 (1981)).

The test system of data set [2] is 1:1 mixtures of normal marrow progenitors and CML blast crisis cells. Nature of the data set: CFU-GM + CFU-L colony formation of 1:1 mixtures of normal marrow progenitors and CML blast crisis cells. Format: cell-based, human. The settings on record: Table 3; 1:1 mixture; 40 μg/ml at 0 h, 20 μg/ml 18 h later; 12 days; mean ± SD; control 978 ± 24. An excerpt: Normal bone marrow mononuclear cells (MNC) were obtained by aspiration from consenting volunteers and enriched for hematopoietic progenitors as previously reported by numerous investigators (Zamecnick et al., Proc. Natl. Acad. Sci. U.S.A. 83, 4143-4147 (1986); Caracciolo et al., J. Clin. Invest. 85, 55-61 (1990)). In brief, marrow cells were subjected to Ficoll-Hypaque density gradient sedimentation and then depleted of adherent monocyte-macrophage and T-lymphocytes by adherence to plastic Petri dishes and rosetting with neuraminidase-treated sheep red blood cells, respectively. Philadelphia chromosome-positive blast cells were isolated by Ficoll-Hypaque density gradient sedimentation from a CML patient in blast crisis (L-6 type junction). […] The residual non-blast cells had the morphological appearance of small lymphocytes. 25,000 MNC and 25,000 CML blast cells were combined and incubated with bcr-abl breakpoint-Specific antisense oligomer (SEQ ID NO:3) (40 μg/ml at h 0; 20 μg/ml 18 hours later) or with a 4 nucleotide mismatch bcr-abl antisense oligomer (SEQ ID NO:2) (40 μg/ml at 0 h; 20 μg/ml 18 hours later) or left untreated. […] At the end of the incubation period colonies were counted. […]

A further data set concerns BV173 cells (b2/a2). Nature of the data set: Proliferation of BV173 cells expressing b2a2 junction. The settings on record: in comparison to untreated control cells (FIG. 7). The data set is classed as cell-based, human. On the procedure:
Amplification of the bcr-abl junction with a 5' primer corresponding to bcr exon 2, and a 3' primer corresponding to abl exon 2, followed by hybridization to an 18-mer specific for the b2/a2 or the b3/a2 junction identified the b2/a2 breakpoint in these cells (data not shown).
The sensitivity of the BV173 cells to b2/a2 antisense phosphorothioate oligodeoxynucleotides was assessed. Phosphorothioate oligodeoxynucleotides were prepared on either an Applied Biosystems Model 380B or 390Z Automated Synthesis instrument using conventional phosphoramidite monomers and manufacturer-recommended procedures, which included substitution of tetraethylthiuran (or an equivalent sulfur-donor reagent) for iodine-water-pyridine, […] reversed-phase preparative chromatography, detritylation, and obtaining the final product in the form of its sodium salt, all according to previously published methodology: Zon and Stec, in Oligonucleotides and Analogues A Practical Approach, F. Eckstein, Ed. (Oxford Univerisity Press, Oxford 1991), pp. 87-108; Zon and Geiser, Anti-Cancer Drug Design 6, 539 (1991); Vu and Hirschenbein, Tetrahedron Lett. 32, 3005-3008 (1991).
BV173 cells were cultured in the presence of phosphorothioate b2/a2 antisense 26-mer CGCTGAAGGG CTTCTTCCT ATTGAT (SEQ ID NO:29), the phosphorothioate sense sequence ATCAATAAGGAAGCCCTTCAGCG (SEQUENCE ID NO:34), or the b3/a2 (SEQ ID NO:31) or b1/a2 (SEQ ID N0:33) phosphorothioate antisense 26-mer. […] The sense oligomer SEQ ID NO:34 gave no inhibition (FIG. 7, -.largecircle.-) in comparison to untreated control cells (FIG. 7, -.quadrature.-).

For another data set, the system named is BV173 cells. The data set is described as follows: Survival of leukemic SCID mice. The data set is classed as in vivo, SCID mice (human leukemic cells). The conditions noted are these: treatment starting from days +7 or +21 (FIG. 12). The text has this:
To determine the lethal dose of BV173 cells in the SCID mice, we injected from 10^3 to 10^7 cells into the tail vein and monitored survival at various times postinjection. Mice injected with 10^7, 10^6, 10^5, or 10^4 BV173 cells died 8-10, 9-12, 13-15, or 14-22 weeks later, respectively, due to leukemia cell growth as confirmed on necroscopy. Spleen weight was about 40 times higher than that in noninjected SCID mice while liver and kidneys had numerous metastases and were enlarged 10-fold as compared to noninjected mice. Mice injected with 10^3 BV173 cells were still alive 35 weeks post implantation, and leukemia was never detected. From this study, 10^6 cells was taken as a lethal dose.
To determine whether synthetic phosphorothioate oligodeoxynucleotides targeted against the bcr-abl junction of […] cells would modify the disease process in SCID mice. SCID mice were injected with 10^6 BV173 cells. The mice then received 1 mg of sense (ATCAATAAGG AAGCCCTTCAGCG, SEQ ID NO:34) or antisense ([…] ATTGAT, SEQ ID NO:29) b2/a2 bcr-abl phosphorothioate oligodeoxynucleotides (pyrogen leven <1 Eu/mg; 0.2 ml in Iscove modified Dulbecco medium in 5-10 seconds) intravenously for each of 9 consecutive days, beginning either 7 or 21 days after introducing 10^6 BV173 cells. Control mice received the diluent (iscove's modified Dulbecco medium) only. These time points approximate distinct disease stages in humans.

With “SEQ ID NO:3: synthetic 18-mer GAAGGGCTTC TTCCTTAT specific for the 18-nucleotide target sequence of the L-6 bcr-abl junction (antisense GAAGGGCTTCTTCCTTAT; chemistry not given here)”, the “% Inhibition” value in data set [1] (Table 1, patient 1, number of colonies vs untreated) was determined as 75%. Also, the “Number of Colonies, Antisense-treated” value in data set [1] (Table 1, patient 3, 40 μg/ml at start, 20 μg/ml 18 h later, untreated 480 ± 88) was 50 ± 12 colonies. In addition, the “bcr-abl transcript in RNA from colonies” value with bcr-abl transcripts is “No bcr-abl transcript was detected”. Besides, the “Colonies or Clusters, CFU-GM + CFU-L” value in data set [2] is 450 ± 42 colonies or clusters.

“SEQ ID NO:34: phosphorothioate sense sequence ATCAATAAGGAAGCCCTTCAGCG (23-mer b2a2 sense) (sense ATCAATAAGGAAGCCCTTCAGCG; all phosphorothioate, sugars by position and methylation of C not given here)”: in the data set with BV173 cells (b2/a2), the “inhibition of proliferation of BV173 cells” value is on record as “no inhibition”. For the same substance, in the data set with BV173 cells, the “mortality / survival outcome” value is “died with diffuse leukemia” and the “survival after i.v. injection of 10^6 BV173 cells” value is 10-13 weeks.
